# What was measured:
# Type in all cases: cell-based
# NIH3T3 cells [1] = assay: Destabilization mutant screening of human CA2 linked to GFP, ligand response by FACS (Valdecoxib, Celecoxib, Acetazolamide); conditions: for stabilization with varying doses of Valdecoxib or Celecoxib: NIH3T3 cells, FACS
# NIH3T3 cells [2] = assay: Immunoblotting of cell lysates for GFP after ligand treatment; conditions: 24 hours; for GFP protein expression by immunoblot, Acetazolamide: NIH3T3 cells, 0.3, 1, 3, 10 or 30 μM Acetazolamide; for GFP protein expression by immunoblot, Celecoxib or Valdecoxib: NIH3T3 cells, 1, 3, 10 or 30 μM Celecoxib or Valdecoxib
# Procedure: The protein expression in the presence of ligand was measured by immunoblotting the cell lysates for GFP.
# The protein expression in the presence of ligand was measured by immunoblotting cell lysates for GFP.
# NIH3T3 cells [3] = assay: Destabilization mutant screening of human CA2 linked to GFP, ligand response by FACS (Valdecoxib, Celecoxib, Acetazolamide)
# [4] = tested on: Activated T cells from human donor; assay: Cell surface CAR expression of CA2 regulated CAR constructs (CD19-Fc staining)
# Procedure: CA2 DD described herein were operably linked to CARs to generate tunable CAR constructs. Activated T cells from human donor were transduced with 10 μL of lentivirus for indicated constructs. […] Cell surface CAR expression was detected the following day by staining the cells with 10 ug/mL CD19-Fc followed by an anti-human-BV421 conjugated secondary antibody. Histograms were plotted from a live cell gate. Similar experiments were also performed at day 8 and the cells were harvested at day 9. The data are shown in Table 20 as percentage CAR positive cells. The stabilization ratio was also calculated and is included in Table 20 as SR.
# Activated T cells from human donor were transduced with 10 μL of lentivirus for indicated constructs. […] Cell surface CAR expression was detected the following day by staining the cells with 10 ug/mL CD19-Fc followed by an anti-human-BV421 conjugated secondary antibody. The percent of ligand induced CAR+ cells are plotted from a live cell gate relative to vehicle treated negative control cells.
# [5] = NIH3T3, 10 μM Celecoxib vs DMSO
# [6] = NIH3T3, 10 μM Valdecoxib vs DMSO
# [7] = NIH3T3, Acetazolamide 0.03 μM, 24 hours
# [8] = NIH3T3, Acetazolamide 0.1 μM vs DMSO
# [9] = NIH3T3, Acetazolamide 0.1 μM, 24 hours
# [10] = NIH3T3, Acetazolamide 0.3 μM vs DMSO
# [11] = NIH3T3, Acetazolamide 0.3 μM, 24 hours
# [12] = NIH3T3, Acetazolamide 1 μM vs DMSO
# [13] = NIH3T3, Acetazolamide 1 μM, 24 hours
# [14] = NIH3T3, Acetazolamide 3 μM vs DMSO
# [15] = NIH3T3, Acetazolamide 3 μM, 24 hours
# [16] = NIH3T3, Acetazolamide 10 μM vs DMSO
# [17] = NIH3T3, Acetazolamide 10 μM, 24 hours
# [18] = NIH3T3, Acetazolamide 30 μM vs DMSO
# [19] = NIH3T3, Acetazolamide 30 μM, 24 hours
# [20] = NIH3T3, Celecoxib 0 μM, 24 hours
# [21] = NIH3T3, Celecoxib 0.03 μM, 24 hours
# [22] = NIH3T3, Celecoxib 0.1 μM, 24 hours
# [23] = NIH3T3, Celecoxib 0.3 μM, 24 hours
# [24] = NIH3T3, Celecoxib 1 μM, 24 hours
# [25] = NIH3T3, Celecoxib 3 μM, 24 hours
# [26] = NIH3T3, Celecoxib 10 μM, 24 hours
# [27] = NIH3T3, Celecoxib 30 μM, 24 hours
# [28] = NIH3T3, Celecoxib μM (concentration not given)
# [29] = NIH3T3, DMSO, 24 hours (Acetazolamide experiment)
# [30] = NIH3T3, Valdecoxib 0 μM, 24 hours
# [31] = NIH3T3, Valdecoxib 0.03 μM, 24 hours
# [32] = NIH3T3, Valdecoxib 0.1 μM, 24 hours
# [33] = NIH3T3, Valdecoxib 0.3 μM, 24 hours
# [34] = NIH3T3, Valdecoxib 1 μM, 24 hours
# [35] = NIH3T3, Valdecoxib 3 μM, 24 hours
# [36] = NIH3T3, Valdecoxib 10 μM, 24 hours
# [37] = NIH3T3, Valdecoxib 30 μM, 24 hours
# [38] = NIH3T3, Valdecoxib μM (concentration not given)
# [39] = NIH3T3, Acetazolamide 0.03 μM vs DMSO
# [40] = NIH3T3, DMSO (reference), Acetazolamide experiment
compound,measurement,setting,value
"CA2 (aa 2-260 of WT, L197P) [LibC000186]",Median PE,"NIH3T3 cells [1]; NIH3T3, 10 μM Celecoxib",8156
same,SR (stabilization ratio),NIH3T3 cells [1]; [5],10
same,Median PE,"NIH3T3 cells [1]; NIH3T3, 10 μM Valdecoxib",6570
same,SR (stabilization ratio),NIH3T3 cells [1]; [6],8.05
same,Median FITC / Median PE,NIH3T3 cells [1]; [7],872
same,Fold change,NIH3T3 cells [1]; [8],1.18
same,Median FITC / Median PE,NIH3T3 cells [1]; [9],867
same,Fold change,NIH3T3 cells [1]; [10],1.23
same,Median FITC / Median PE,NIH3T3 cells [1]; [11],903
same,Fold change,NIH3T3 cells [1]; [12],1.28
same,Median FITC / Median PE,NIH3T3 cells [1]; [13],936
same,Fold change,NIH3T3 cells [1]; [14],1.28
same,Median FITC / Median PE,NIH3T3 cells [1]; [15],943
same,"MFI, comparative analysis","NIH3T3 cells [1]; NIH3T3, Acetazolamide 10 μM",1189
same,Fold change,NIH3T3 cells [1]; [16],1.62
same,Median FITC / Median PE,NIH3T3 cells [1]; [17],1189
same,"MFI, comparative analysis","NIH3T3 cells [1]; NIH3T3, Acetazolamide 30 μM",1827
same,Fold change,NIH3T3 cells [1]; [18],2.49
same,Median FITC / Median PE,NIH3T3 cells [1]; [19],1827
same,Med (median fluorescence intensity),NIH3T3 cells [1]; [20],934
same,SR (stabilization ratio),NIH3T3 cells [1]; [20],1
same,Med (median fluorescence intensity),NIH3T3 cells [1]; [21],1177
same,SR (stabilization ratio),NIH3T3 cells [1]; [21],1.26
same,Med (median fluorescence intensity),NIH3T3 cells [1]; [22],1290
same,SR (stabilization ratio),NIH3T3 cells [1]; [22],1.38
same,Med (median fluorescence intensity),NIH3T3 cells [1]; [23],1470
same,SR (stabilization ratio),NIH3T3 cells [1]; [23],1.57
same,Med (median fluorescence intensity),NIH3T3 cells [1]; [24],2065
same,SR (stabilization ratio),NIH3T3 cells [1]; [24],2.21
same,Med (median fluorescence intensity),NIH3T3 cells [1]; [25],4171
same,SR (stabilization ratio),NIH3T3 cells [1]; [25],4.47
same,Med (median fluorescence intensity),NIH3T3 cells [1]; [26],8202
same,SR (stabilization ratio),NIH3T3 cells [1]; [26],8.78
same,Med (median fluorescence intensity),NIH3T3 cells [1]; [27],10200
same,SR (stabilization ratio),NIH3T3 cells [1]; [27],10.92
same,"MFI, comparative analysis, normalized to parental day 1",NIH3T3 cells [1]; [28],7312.627
same,"MFI, comparative analysis","NIH3T3 cells [1]; NIH3T3, DMSO",734
same,Median PE,"NIH3T3 cells [1]; NIH3T3, DMSO",816
same,SR (stabilization ratio),"NIH3T3 cells [1]; NIH3T3, DMSO (reference)",1
same,Median FITC / Median PE,NIH3T3 cells [1]; [29],734
same,Med (median fluorescence intensity),NIH3T3 cells [1]; [30],934
same,SR (stabilization ratio),NIH3T3 cells [1]; [30],1
same,Med (median fluorescence intensity),NIH3T3 cells [1]; [31],1223
same,SR (stabilization ratio),NIH3T3 cells [1]; [31],1.31
same,Med (median fluorescence intensity),NIH3T3 cells [1]; [32],1217
same,SR (stabilization ratio),NIH3T3 cells [1]; [32],1.3
same,Med (median fluorescence intensity),NIH3T3 cells [1]; [33],1363
same,SR (stabilization ratio),NIH3T3 cells [1]; [33],1.46
same,Med (median fluorescence intensity),NIH3T3 cells [1]; [34],1711
same,SR (stabilization ratio),NIH3T3 cells [1]; [34],1.83
same,Med (median fluorescence intensity),NIH3T3 cells [1]; [35],3357
same,SR (stabilization ratio),NIH3T3 cells [1]; [35],3.59
same,Med (median fluorescence intensity),NIH3T3 cells [1]; [36],7890
same,SR (stabilization ratio),NIH3T3 cells [1]; [36],8.45
same,Med (median fluorescence intensity),NIH3T3 cells [1]; [37],11800
same,SR (stabilization ratio),NIH3T3 cells [1]; [37],12.63
same,"MFI, comparative analysis, normalized to parental day 1",NIH3T3 cells [1]; [38],7034.458
same,stabilization with varying doses of Valdecoxib or Celecoxib,NIH3T3 cells [1]; 24 hours,dose dependent stabilization
same,"GFP protein expression by immunoblot, Acetazolamide",NIH3T3 cells [2],stabilization of GFP with increasing ligand doses
same,"GFP protein expression by immunoblot, Celecoxib or Valdecoxib",NIH3T3 cells [2],stabilization of GFP with increasing ligand doses
same,Fold change,NIH3T3 cells [3]; [39],1.19
same,Fold change,NIH3T3 cells [3]; [40],1
"CA2 (aa 2-260 of WT, L156H) [LibC000208]",Median PE,"NIH3T3 cells [1]; NIH3T3, 10 μM Celecoxib",8690
same,SR (stabilization ratio),NIH3T3 cells [1]; [5],9.38
same,Median PE,"NIH3T3 cells [1]; NIH3T3, 10 μM Valdecoxib",8006
same,SR (stabilization ratio),NIH3T3 cells [1]; [6],8.65
same,Median FITC / Median PE,NIH3T3 cells [1]; [7],1190
same,Fold change,NIH3T3 cells [1]; [8],2.82
same,Median FITC / Median PE,NIH3T3 cells [1]; [9],2137
same,Fold change,NIH3T3 cells [1]; [10],6.23
same,Median FITC / Median PE,NIH3T3 cells [1]; [11],4715
same,Fold change,NIH3T3 cells [1]; [12],13.17
same,Median FITC / Median PE,NIH3T3 cells [1]; [13],9970
same,Fold change,NIH3T3 cells [1]; [14],18.36
same,Median FITC / Median PE,NIH3T3 cells [1]; [15],13900
same,"MFI, comparative analysis","NIH3T3 cells [1]; NIH3T3, Acetazolamide 10 μM",16900
same,Fold change,NIH3T3 cells [1]; [16],22.32
same,Median FITC / Median PE,NIH3T3 cells [1]; [17],16900
same,"MFI, comparative analysis","NIH3T3 cells [1]; NIH3T3, Acetazolamide 30 μM",17800
same,Fold change,NIH3T3 cells [1]; [18],23.51
same,Median FITC / Median PE,NIH3T3 cells [1]; [19],17800
same,Med (median fluorescence intensity),NIH3T3 cells [1]; [20],906
same,SR (stabilization ratio),NIH3T3 cells [1]; [20],1
same,Med (median fluorescence intensity),NIH3T3 cells [1]; [21],1017
same,SR (stabilization ratio),NIH3T3 cells [1]; [21],1.12
same,Med (median fluorescence intensity),NIH3T3 cells [1]; [22],1194
same,SR (stabilization ratio),NIH3T3 cells [1]; [22],1.32
same,Med (median fluorescence intensity),NIH3T3 cells [1]; [23],1457
same,SR (stabilization ratio),NIH3T3 cells [1]; [23],1.61
same,Med (median fluorescence intensity),NIH3T3 cells [1]; [24],2221
same,SR (stabilization ratio),NIH3T3 cells [1]; [24],2.45
same,Med (median fluorescence intensity),NIH3T3 cells [1]; [25],5404
same,SR (stabilization ratio),NIH3T3 cells [1]; [25],5.96
same,Med (median fluorescence intensity),NIH3T3 cells [1]; [26],9766
same,SR (stabilization ratio),NIH3T3 cells [1]; [26],10.78
same,Med (median fluorescence intensity),NIH3T3 cells [1]; [27],13200
same,SR (stabilization ratio),NIH3T3 cells [1]; [27],14.57
same,"MFI, comparative analysis, normalized to parental day 1",NIH3T3 cells [1]; [28],8707.036
same,"MFI, comparative analysis","NIH3T3 cells [1]; NIH3T3, DMSO",757
same,Median PE,"NIH3T3 cells [1]; NIH3T3, DMSO",926
same,SR (stabilization ratio),"NIH3T3 cells [1]; NIH3T3, DMSO (reference)",1
same,Median FITC / Median PE,NIH3T3 cells [1]; [29],757
same,Med (median fluorescence intensity),NIH3T3 cells [1]; [30],906
same,SR (stabilization ratio),NIH3T3 cells [1]; [30],1
same,Med (median fluorescence intensity),NIH3T3 cells [1]; [31],1049
same,SR (stabilization ratio),NIH3T3 cells [1]; [31],1.16
same,Med (median fluorescence intensity),NIH3T3 cells [1]; [32],1131
same,SR (stabilization ratio),NIH3T3 cells [1]; [32],1.25
same,Med (median fluorescence intensity),NIH3T3 cells [1]; [33],1219
same,SR (stabilization ratio),NIH3T3 cells [1]; [33],1.35
same,Med (median fluorescence intensity),NIH3T3 cells [1]; [34],1747
same,SR (stabilization ratio),NIH3T3 cells [1]; [34],1.93
same,Med (median fluorescence intensity),NIH3T3 cells [1]; [35],3603
same,SR (stabilization ratio),NIH3T3 cells [1]; [35],3.98
same,Med (median fluorescence intensity),NIH3T3 cells [1]; [36],8284
same,SR (stabilization ratio),NIH3T3 cells [1]; [36],9.14
same,Med (median fluorescence intensity),NIH3T3 cells [1]; [37],11300
same,SR (stabilization ratio),NIH3T3 cells [1]; [37],12.48
same,"MFI, comparative analysis, normalized to parental day 1",NIH3T3 cells [1]; [38],7385.735
same,stabilization with varying doses of Valdecoxib or Celecoxib,NIH3T3 cells [1]; 24 hours,dose dependent stabilization
same,"GFP protein expression by immunoblot, Acetazolamide",NIH3T3 cells [2],stabilization of GFP with increasing ligand doses
same,"GFP protein expression by immunoblot, Celecoxib or Valdecoxib",NIH3T3 cells [2],stabilization of GFP with increasing ligand doses
same,Fold change,NIH3T3 cells [3]; [39],1.57
same,Fold change,NIH3T3 cells [3]; [40],1
same,GFP expression with varying doses of Acetazolamide,"NIH3T3 cells [3]; NIH3T3 cells, 24 hours, FACS",dose response stabilization of GFP expression
Cc1onc(-c2ccccc2)c1-c1ccc(S(N)(=O)=O)cc1 [Valdecoxib],regulation of CAR expression by titrations of Valdecoxib,"[4]; T cells day 8, Valdecoxib starting at 10 μM diluting 3-fold, overnight",Little to no ligand dependent regulation of CAR
same,CAR regulation compared between ligands,"[4]; T cells, 10 μM ligand overnight, day 7 and 9",regulation was more evident at day 7
